Source: ChEMBL document CHEMBL5537201, “Discovery of Unique Bis-Substituted Aromatic Amide Derivatives as Novel Highly Potent Antibiotics for Combating Methicillin-Resistant Staphylococcus aureus (MRSA)” (J Med Chem, 2024)
Values after ≈ are worked out from the molar mass of the structure shown. Active and inactive are the calls of the source. The rule behind the calls is not given here.

Legend:
Cell membrane [1] = experiment: Induction of inner membrane permeabilization in methicillin resistant Staphylococcus aureus clinical isolate MRS153 assessed as increase in red fluorescence at 5 ug/ml by PI staining based analysis; assay type: cell membranes; settings: dose 5.0 µg/ml
Staphylococcus aureus [2] = experiment: In vivo antibacterial activity against methicillin-resistant Staphylococcus aureus clinical isolate MRS153 infected in C57BL/6N mouse model assessed as reduction in bacterial load in spleen at 3.125 to 12.5 mg/kg, iv measured after 24 hrs; assay type: functional, organism-based; settings: dose 3.125-12.5 mg/kg
[3] = Toxicity in BALB/c mouse assessed as as change in ALT level at 25 to 50 mg/kg, iv; assay type: organism-based; settings: in vivo, dose 25-50 mg/kg
Staphylococcus aureus [4] = experiment: Bactericidal activity against Staphylococcus aureus ATCC6538 at 5 ug/ml measured upto 150 mins; assay type: functional, organism-based; settings: dose 5.0 µg/ml
Staphylococcus aureus [5] = experiment: Bactericidal activity against Staphylococcus aureus ATCC6538 assessed as reduction in survival rate at 5 to 10 times MIC measured within 1 hr by colony counting method; assay type: functional, organism-based
Staphylococcus aureus [6] = experiment: In vivo antibacterial activity against methicillin-resistant Staphylococcus aureus clinical isolate MRS153 infected in C57BL/6N mouse model assessed as reduction in bacterial load in lung at 3.125 to 12.5 mg/kg, iv measured after 24 hrs; assay type: functional, organism-based; settings: dose 3.125-12.5 mg/kg
Staphylococcus aureus [7] = experiment: Antimicrobial activity against vancomycin-resistant Staphylococcus aureus assessed as reduction in bacterial growth incubated for 24 hrs by two-fold broth dilution method; assay type: functional
Staphylococcus aureus [8] = experiment: Antimicrobial activity against methicillin resistant Staphylococcus aureus clinical isolate MRS121 assessed as reduction in bacterial growth incubated for 24 hrs by two-fold broth dilution method; assay type: functional
Staphylococcus aureus [9] = experiment: Antibiofilm activity against Staphylococcus aureus ATCC6538 assessed as reduction in biofilm formation at 1 to 32 ug/ml incubated for 20 to 22 hrs by crystal violet staining based analysis; assay type: functional, organism-based; settings: dose 1-32 µg/ml, time 20-22 hrs
Staphylococcus aureus [10] = experiment: Bactericidal activity against methicillin-resistant Staphylococcus aureus clinical isolate MRS153 at 5 ug/ml measured upto 150 mins; assay type: functional, organism-based; settings: dose 5.0 µg/ml
Staphylococcus aureus [11] = experiment: Induction of membrane morphological changes in Staphylococcus aureus ATCC6538 assessed as cell membrane deformation at 5 times of MIC measured after 0.5 hrs by FE-SEM analysis; assay type: functional, organism-based
[12] = Toxicity in BALB/c mouse assessed as as effect on kidney at 25 to 50 mg/kg, iv by H and E staining based analysis; assay type: organism-based; settings: in vivo, dose 25-50 mg/kg
Staphylococcus aureus [13] = experiment: Bactericidal activity against methicillin-resistant Staphylococcus aureus clinical isolate MRS1 at 5 ug/ml measured upto 150 mins; assay type: functional, organism-based; settings: dose 5.0 µg/ml
Staphylococcus aureus [14] = experiment: Upregulation of repair gene expression in Staphylococcus aureus ATCC6538 at 5 ug/ml incubated for 2 hrs by RNA sequencing analysis; assay type: functional, organism-based; settings: dose 5.0 µg/ml
Cell membrane [15] = experiment: Induction of cytoplasmic membrane depolarization in methicillin resistant Staphylococcus aureus clinical isolate MRS153 assessed as increase in fluorescence intensity measured upto 120 mins by DiSC3(5) dye based fluorescence method; assay type: cell membranes
[16] = Selectivity index, ratio of HC50 for rabbit Red blood cell to MIC for Staphylococcus aureus ATCC6538; assay type: toxicity; settings: red blood cells (erythrocytes), read-out: Selectivity Index
[17] = Cytotoxicity against human HaCaT cells assessed as reduction in cell viability measured after 24 hrs by CCK-8 method; assay type: toxicity, cell-based
Staphylococcus aureus [18] = experiment: Binding affinity to Staphylococcus aureus ATCC6538 Phosphatidylglycerol assessed as change in MIC at upto 256 ug/ml measured after 22 hrs; settings: dose <= 256.0 µg/ml
Staphylococcus aureus [19] = experiment: Antimicrobial activity against methicillin resistant Staphylococcus aureus clinical isolate MRS153 assessed as increase in ROS levels measured upto 180 mins in presence of chloramphenicol by H2DCFDA probe based flow cytometry; assay type: functional, organism-based
Staphylococcus aureus [20] = experiment: Upregulation of redox gene expression in Staphylococcus aureus ATCC6538 at 5 ug/ml incubated for 2 hrs by RNA sequencing analysis; assay type: functional, organism-based; settings: dose 5.0 µg/ml
Staphylococcus aureus [21] = experiment: Antimicrobial activity against Staphylococcus aureus ATCC6538 assessed as increase in ROS levels measured upto 90 mins by H2DCFDA probe based flow cytometry; assay type: functional, organism-based
Cell membrane [22] = experiment: Induction of inner membrane permeabilization in Staphylococcus aureus ATCC6538 assessed as increase in blue fluorescence at 5 ug/ml by DAPI staining based analysis; assay type: cell membranes; settings: dose 5.0 µg/ml
Staphylococcus aureus [23] = experiment: Antimicrobial activity against methicillin resistant Staphylococcus aureus clinical isolate MRS273 assessed as reduction in bacterial growth incubated for 24 hrs by two-fold broth dilution method; assay type: functional
Staphylococcus aureus [24] = experiment: Antimicrobial activity against methicillin resistant Staphylococcus aureus clinical isolate MRS153 assessed as membrane fluidity measured after 35 mins; assay type: functional, organism-based
[25] = Toxicity in BALB/c mouse assessed as mouse death at 50 mg/kg, iv measured upto 8 days; assay type: organism-based; settings: in vivo, 192 h, time < 8 day
[26] = Toxicity in BALB/c mouse assessed as as change in BUN level at 25 to 50 mg/kg, iv; assay type: organism-based; settings: in vivo, dose 25-50 mg/kg
Cell membrane [27] = experiment: Induction of inner membrane permeabilization in methicillin resistant Staphylococcus aureus clinical isolate MRS153 assessed as increase in blue fluorescence at 5 ug/ml by DAPI staining based analysis; assay type: cell membranes; settings: dose 5.0 µg/ml
Cell membrane [28] = experiment: Disruption of cell membrane integrity in methicillin resistant Staphylococcus aureus clinical isolate MRS153 assessed as increase in fluorescence intensity at 1 to 26 times MIC measured upto 36 mins ethidium bromide uptake assay; assay type: cell membranes
Staphylococcus aureus [29] = experiment: Antimicrobial activity against Staphylococcus aureus ATCC6538 assessed as increase in ROS levels measured upto 180 mins in presence of chloramphenicol by H2DCFDA probe based flow cytometry; assay type: functional, organism-based
Staphylococcus aureus [30] = experiment: Antibiofilm activity against Staphylococcus aureus clinical isolate MRS153 assessed as reduction in biofilm formation at 1 to 32 ug/ml incubated for 20 to 22 hrs by crystal violet staining based analysis; assay type: functional, organism-based; settings: dose 1-32 µg/ml, time 20-22 hrs
Staphylococcus aureus [31] = experiment: Antimicrobial activity against Staphylococcus aureus ATCC6538 assessed as membrane fluidity measured after 35 mins; assay type: functional, organism-based
Staphylococcus aureus [32] = experiment: In vivo antibacterial activity against methicillin-resistant Staphylococcus aureus clinical isolate MRS153 infected in C57BL/6N mouse model assessed as reduction in bacterial load in kidney at 3.125 to 12.5 mg/kg, iv measured after 24 hrs; assay type: functional, organism-based; settings: dose 3.125-12.5 mg/kg
Staphylococcus aureus [33] = experiment: Antibacterial activity against methicillin-resistant Staphylococcus aureus clinical isolate MRS153 infected in C57BL/6N mouse model assessed as infiltration of inflammatory cells at 3.125 to 12.5 mg/kg, iv; assay type: functional, organism-based; settings: dose 3.125-12.5 mg/kg
[34] = Cytotoxicity against African green monkey Vero E6 cells assessed as reduction in cell viability measured after 24 hrs by CCK-8 method; assay type: toxicity, cell-based, Chlorocebus sabaeus, Vero C1008
[35] = Toxicity in BALB/c mouse assessed as as effect on lung at 25 to 50 mg/kg, iv by H and E staining based analysis; assay type: organism-based; settings: in vivo, dose 25-50 mg/kg
Staphylococcus aureus [36] = experiment: Antimicrobial activity against methicillin resistant Staphylococcus aureus clinical isolate MRS153 assessed as increase in ROS levels measured upto 90 mins by H2DCFDA probe based flow cytometry; assay type: functional, organism-based
Staphylococcus aureus [37] = experiment: Antimicrobial activity against methicillin resistant Staphylococcus aureus clinical isolate MRS200 assessed as reduction in bacterial growth incubated for 24 hrs by two-fold broth dilution method; assay type: functional
Staphylococcus aureus [38] = experiment: Antimicrobial activity against methicillin resistant Staphylococcus aureus clinical isolate MRS70 assessed as reduction in bacterial growth incubated for 24 hrs by two-fold broth dilution method; assay type: functional

**Q.** Which Activity (Cell membrane [1]) does the source give for `O=C(CCC(F)(F)F)N(Cc1cc2ccccc2s1)c1cc(-c2noc(C(F)(F)F)n2)ccc1O` here?
**A.** The Activity was “Active”.

**Q.** What about the Activity (Staphylococcus aureus [2]) of the same compound?
**A.** The Activity was “Active”.

**Q.** And the Activity [3]?
**A.** Its Activity is “Non-Toxic”.

**Q.** What about the Activity (Staphylococcus aureus [4]) of the same compound?
**A.** Its Activity is “Active”.

**Q.** What about the Activity (Staphylococcus aureus [5]) of the same compound?
**A.** The Activity was “Active”.

**Q.** What about the Activity (Staphylococcus aureus [6]) of the same compound?
**A.** Its Activity is “Active”.

**Q.** And the MIC (Staphylococcus aureus [7])?
**A.** The MIC was 0.5 µg/mL (≈ 0.97 µM).

**Q.** And the MIC (Staphylococcus aureus [8])?
**A.** The MIC was 1 µg/mL (≈ 1.94 µM).

**Q.** And the Activity (Staphylococcus aureus [9])?
**A.** Its Activity is “Active”.

**Q.** And the Activity (Staphylococcus aureus [10])?
**A.** Its Activity is “Active”.

**Q.** What about the Activity (Staphylococcus aureus [11]) of the same compound?
**A.** Its Activity is “Active”.

**Q.** And the Activity [12]?
**A.** Its Activity is “Non-Toxic”.

**Q.** And the Activity (Staphylococcus aureus [13])?
**A.** The Activity was “Active”.

**Q.** And the Activity (Staphylococcus aureus [14])?
**A.** The Activity was “Active”.

**Q.** And the Activity (Cell membrane [15])?
**A.** The Activity was “Active”.

**Q.** And the selectivity ratio [16]?
**A.** The selectivity ratio was > 1000.

**Q.** And the IC50 at 24 h [17]?
**A.** The IC50 at 24 h was > 25 µg/mL.

**Q.** What about the Activity (Staphylococcus aureus [18]) of the same compound?
**A.** Its Activity is “inactive”.

**Q.** And the Activity (Staphylococcus aureus [19])?
**A.** The Activity was “inactive”.

**Q.** And the Activity (Staphylococcus aureus [20])?
**A.** The Activity was “Active”.

**Q.** What about the Activity (Staphylococcus aureus [21]) of the same compound?
**A.** Its Activity is “Active”.

**Q.** What about the Activity (Cell membrane [22]) of the same compound?
**A.** Its Activity is “Active”.

**Q.** What about the MIC (Staphylococcus aureus [23]) of the same compound?
**A.** Its MIC is 1 µg/mL (≈ 1.94 µM).

**Q.** And the Activity (Staphylococcus aureus [24])?
**A.** The Activity was “Active”.

**Q.** What about the Activity [25] of the same compound?
**A.** Its Activity is “Non-Toxic”.

**Q.** What about the Activity [26] of the same compound?
**A.** The Activity was “Non-Toxic”.

**Q.** What about the Activity (Cell membrane [27]) of the same compound?
**A.** The Activity was “Active”.

**Q.** What about the Activity (Cell membrane [28]) of the same compound?
**A.** Its Activity is “Active”.

**Q.** And the Activity (Staphylococcus aureus [29])?
**A.** The Activity was “inactive”.

**Q.** What about the Activity (Staphylococcus aureus [30]) of the same compound?
**A.** Its Activity is “Active”.

**Q.** And the Activity (Staphylococcus aureus [31])?
**A.** Its Activity is “Active”.

**Q.** And the Activity (Staphylococcus aureus [32])?
**A.** The Activity was “Active”.

**Q.** And the Activity (Staphylococcus aureus [33])?
**A.** Its Activity is “Active”.

**Q.** What about the IC50 at 24 h [34] of the same compound?
**A.** Its IC50 at 24 h is > 25 µg/mL.

**Q.** And the Activity [35]?
**A.** Its Activity is “Non-Toxic”.

**Q.** And the Activity (Staphylococcus aureus [36])?
**A.** Its Activity is “Active”.

**Q.** And the MIC (Staphylococcus aureus [37])?
**A.** Its MIC is 2 µg/mL (≈ 3.88 µM).

**Q.** And the MIC (Staphylococcus aureus [38])?
**A.** Its MIC is 1 µg/mL (≈ 1.94 µM).
